# Experimental data: patent US20040151761A1, “Methods and compositions utilizing astaxanthin” (priority 2003, published 2004)
# “Also recorded” adds a separate entry of the source.
# Columns and labels:
# [1] = Body weight of dogs fed astaxanthin; format: in vivo, dog
# Procedure: Female Beagle dogs (9 to 10 mo old; 8.2±0.2 kg body weight; Covance Research Products Inc., Kalamazoo, Mich.) were randomly assigned (n=14/treatment) to be fed 0, 10, 20, or 40 mg astaxanthin (109 g astaxanthin/kg oleoresin concentrate from Haematococcus pluvialis, astraZanthin™, La Haye Laboratories, Redmond, Wash.) daily for 16 weeks. Astaxanthin was incorporated into a commercial basal diet (The Iams Co., Lewisburg, Ohio.) and fed two times daily (200 g food/d). The diet composition was as follows (g/kg): 85.3 moisture, 275.8 protein, 60.7 ash, 115.0 fat, 9.9 Ca, 9.3 P, 21.3 crude fiber, and 18,914 kJ/kg gross energy; the n-6:n-3 fatty acid ratio was 7.9. Dogs were housed in 2×3 m pens (2 dogs/pen) in a temperature (20 to 22° C.) and light-(14 hour light) controlled facility. Body weight was recorded on week 0, 4, 8, and 16. Blood was collected on wk 0, 6 and 12 for assessing immune function. All dogs were vaccinated (Vanguard 5™, Smithkline Beacham, West Chester, Pa.) twice on week 12 and 14 and blood again taken on week 16 to assess post-vaccination immune responses.
# [2] = tested on: peripheral blood mononuclear cell (PBMC); test: Lymphoproliferation in dogs (whole blood cultures); format: in vivo, dog
# Procedure: Lyniphoproliferation. The proliferation response of peripheral blood mononuclear cell (PBMC) to PHA (2 and 10 mg/L final concentration), concanavalin A (Con A; 1 and 5 mg/L), and pokeweed mitogen (PWM; 0.25 and 1.25 mg/L) was assessed on week 0, 6, 12 and 16 using whole blood cultures (Chew et al., 2000). Whole blood was cultured in order to mimic in vivo conditions.
# [3] = Plasma astaxanthin in cats fed astaxanthin diets; format: in vivo, cat
# Procedure: (§1) Female domestic short hair cats (8 to 9 months old; 3.2±0.04 kg body weight; Liberty Farms, Waverly, N.Y.) were randomly assigned (n=14/diet) to be fed 0, 1, 5, or 10 mg astaxanthin (109 g astaxanthin/kg oleoresin concentrate from Haematococcus pluvialis, astraZanthin™, La Haye Laboratories, Redmond, Wash.) daily (based on an average intake of 90 g food/day) for 12 weeks. Astaxanthin was incorporated into a commercial basal diet (The Iams Co., Lewisburg, Ohio.) and fed ad libitum. The diet composition was as follows (g/kg): 63.1 moisture, 350.6 protein, 62.7 ash, 213.6 fat, 10.0 Ca, 7.6 P, and 7.1 crude fiber, 21,707 kJ/kg gross energy; the n-6:n-3 fatty acid ratio was 9.9. Cats were housed in a temperature (20 to 22° C.) and light-controlled (14 hour light) facility and body weights were determined at weeks 0, 4, 8 and 12. Blood was collected at week 0 and 8 to assess immune function. To assess the dietary effects of astaxanthin on immune response after an antigenic challenge, all cats were vaccinated (Felocell™, Pfizer, N.Y.) two times (weeks 8 and 10) and blood was collected at week 12 to measure the same immune parameters.
# [4] = Body weight of cats fed astaxanthin; format: in vivo, cat
# Procedure: as §1
# [5] = tested on: Cutaneous delayed-type hypersensitivity (DTH); test: Delayed-type hypersensitivity (skin induration) in cats; format: in vivo, cat
# [6] = Hematology in cats; set-up: species or system cat; conditions: in vivo
# Procedure: Hematology. Hematology parameters (white blood cell, RBC and platelet counts, lymphocyte, monocyte and granulocyte differential counts, hematocrit, hemoglobin, and mean corpuscular volume, hemoglobin and hemoglobin concentration, and platelet volume) were measured using a hematology analyzer (Vet ABC-Hematology Analyzer, Heska, Fort Collins, Colo.).
# [7] = tested on: total T, Th, Tc, MHC II and CD21 lymphocyte populations; test: Leukocyte subsets in cats by flow cytometry; format: in vivo, cat
# Source text: Leukocyte subset. Blood collected at week 0, 8 and 12 was phenotyped for populations of CD3 (total T), CD4 (Th), CD8 (Tc), MHC II (activated lymphocytes), and CD21 (mature B cells) by flow cytometry (FACSCalibur, Becton Dickenson, San Jose, Calif.) as previously described (Chew et al., 2000).
# [8] = tested on: IgG and IgM; test: Plasma IgG and IgM in cats (ELISA); format: in vivo, cat
# Procedure: as §1
# IgG and IgM. Plasma concentrations of IgG (sheep anti-IgG; sensitivity=16 μg/L) and IgM (goat anti-IgM; sensitivity=31 μg/L) were analyzed by ELISA using a commercial kit (Bethyl Lab., Inc., Montgomery, Tex.).
# [9] = Absorption of astaxanthin and distribution to blood leukocytes and HDL in cats; format: in vivo, cat
# [10] = tested on: humoral and cell-mediated immune responses; conditions: cited from earlier work
# [11] = post-vaccination week 12, 10 mg
structure (smiles),measurement,setting,value
"CC1=C(/C=C/C(C)=C/C=C/C(C)=C/C=C/C=C(C)/C=C/C=C(C)/C=C/C2=C(C)C(=O)C(O)CC2(C)C)C(C)(C)CC(O)C1=O (stereo not drawn) [astaxanthin, 3,3′-dihydroxy-beta, beta-carotene-4,4′-dione]",influence of diet on body weight,"[1]; dogs fed 0, 10, 20 or 40 mg daily, throughout 16 wk study",did not significantly influence body weight
same,body weight averaged,"[1]; wk 16, average over all diets",8.57 ± 0.11 kg
same,con A-induced PBMC proliferation,"[2]; 20 mg, week 12",higher con A-induced PBMC proliferation than un-supplemented dogs; also recorded: highest blastogenic response
same,PHA-stimulated PBMC proliferation,[2]; all time periods,did not influence
same,PWM-stimulated PBMC proliferation,[2]; all time periods,did not influence
same,plasma astaxanthin concentrations,[3]; at week 8,rapid initial increase
same,plasma astaxanthin concentrations,"[3]; cats fed 1, 5 or 10 mg daily",generally a dose-dependent increase; also recorded: dose-related increase in plasma astaxanthin
same,plasma astaxanthin,[3]; week 8 through week 12,"continued to increase, albeit more gradually"
same,body weight between treatments,"[4]; cats fed 0, 1, 5 or 10 mg daily, 12 weeks",not significantly different between treatment
same,body weight averaged,"[4]; week 12, average over all diets",3.22 ± 0.06 kg
same,DTH response with dietary astaxanthin,"[5]; after vaccination, wk 12",somewhat diminished
same,skin induration response to vaccine,"[5]; wk 8, 72 h post-injection, cats fed 10 mg",significant enhancement
same,DTH response to con A,"[5]; wk 8, cats fed 5 or 10 mg",higher DTH response to con A at 24 and 48 h
same,time of maximal skin induration response to vaccine,"[5]; wk 8, post-injection",72 h
same,DTH response to nonspecific (con A) antigenic challenge,"[5]; wk 8, pre-vaccination",stimulated DTH response; also recorded: increased DTH response
same,DTH response to specific (vaccine) antigenic challenge,"[5]; wk 8, pre-vaccination",stimulated DTH response; also recorded: increased DTH response
same,DTH response to con A,[5]; wk 12,significant only with 1 mg astaxanthin
same,DTH response to vaccine,"[5]; wk 12, cats fed 10 mg","still showed enhanced DTH response to vaccine, but at 24 h after injection"
same,blood hematology parameters,[6],generally did not influence
same,hematology values relative to normal range,[6],within the normal range
same,CD8+ T cytotoxic (Tc) cells averaged,[7]; average over diets,4.7±0.4
same,MHC class II population averaged,"[7]; average over diets, in % (unit assumed)",94.1±1.0
same,population of CD4+ T helper (Th) cells,"[7]; by weeks 8 and 12, generally dose-dependent",increased the populations; also recorded: increase in the populations of total T and Th lymphocytes
same,MHC class II population,[7]; in vivo,did not influence
same,distribution of CD8+ T cytotoxic (Tc) cells,[7]; in vivo,did not influence
same,population of B cells,[7]; in vivo,decreased the population of B cells; also recorded: decrease in the B cell population
same,plasma IgG concentration,"[8]; post-vaccination week 12, 5 mg",only those fed 5 mg astaxanthin were significant
same,plasma IgM concentration,"[8]; post-vaccination week 12, 5 mg",only those fed 5 mg astaxanthin were significant
same,plasma IgG concentration,[8]; [11],still numerically higher
same,plasma IgM concentration,[8]; [11],still numerically higher
same,plasma IgG concentration,"[8]; week 8, 10 mg",higher
same,plasma IgM concentration,"[8]; week 8, 10 mg",higher
same,lipoprotein association of circulating astaxanthin,[9]; cats,associated with high-density lipoprotein (HDL)
same,absorption of dietary astaxanthin,[9]; domestic cats,able to absorb dietary astaxanthin
same,uptake by blood and blood leukocytes (sub-cellular organelles),[9]; domestic cats fed astaxanthin,significant uptake by the blood and by all sub-cellular organelles of blood leukocytes; also recorded: significantly absorbed by blood leukocytes
same,cell-mediated immune response,"[10]; rodents (Chew et al., 1999b)",enhanced
same,T cell-mediated antibody production,"[10]; rodents (Jyonouchi et al., 1994)",increased T cell-mediated antibody production
same,humoral immune response,"[10]; rodents (Jyonouchi et al., 1995)",enhanced
